Values quoted from earlier work, collected in US11596701B2, “Disinfection method using a disinfection agent formed in situ by reaction of H2O2 and NO2-” (LEIBNIZ-INSTITUT FÜR PLASMAFORSCHUNG UND TECHNOLOGIE E.V., priority 2018, dated 2023).
Where two headings read alike, the source gives them in different places.

Details: room temperature

Question: Which results are given for peroxynitric acid?
Answer: half-life (Lammel et al., 1990): about 3 minutes; half-life (as stated in US 20170172149): about 10 minutes
